# Measurements from US6410568B1, “Porphyrins and their use as photosensitizer” (Astrid Schastak, priority 1998, dated 2002).
# Tests used:
# Experiment in all cases: Photodynamic effect in vitro, MTT test after irradiation
# [1] = system: highly-differentiated gallbladder carcinoma cell line (Wittier); format: cell-based, human; settings: THPTPS 0.2, 0.4, 0.8 mg/ml for 12 hours, Ti:Sa laser 771 nm, 15 J/cm^2
# Method: (§1) To examine the photodynamic effect in vitro, the above-mentioned cell lines were cultivated in a cell count of 2×10^5 C/ml in DMEM+10% FKS and incubated with the photosensitizer THPTPS in a concentration of 0.2, 0.4, 0.8 mg/ml (Wittier) or 0.4, 0.8, 1.6 mg/ml for 12 hours. Subsequently, they were irradiated with the light of a Ti:Sa leaser with a wavelength of 771 nm and a dose of 15 J/cm^2. […] Approximately 88% of the choroid melanoma cells were able to be killed by the irradiation.
# [2] = system: bile duct adenocarcinoma cell line (Charies), undifferentiated to a high degree; format: cell-based; settings: THPTPS 0.4, 0.8, 1.6 mg/ml for 12 hours, Ti:Sa laser 771 nm, 15 J/cm^2
# Method: as §1
# choroid melanoma cells = format: cell-based; settings: THPTPS 0.4, 0.8, 1.6 mg/ml for 12 hours, Ti:Sa laser 771 nm, 15 J/cm^2
# Method: as §1
substance,measurement,setting,value
"5,10,15,20-tetrakis-(1-alkyl-pyridyl)-21H, 23H-7,8,17,18-tetrahydroporphyrin-tetra-p-toluene sulphonate [THPTPS]",cells dead (MTT test),[1],approx. 88%
same,cells dead (MTT test),[2],approx. 84%
same,cells killed by the irradiation (MTT test),choroid melanoma cells,approx. 88%
